Common to all, as to format: biochemical
Test [1] deals with T1, hSIRT3 102-399 (Homo sapiens, UniProt Q9NTG7).
T1 construct: His-tag; purchased Enzo Life Sciences (Farmingdale, NY)
T1 sequence (Q9NTG7 102-399): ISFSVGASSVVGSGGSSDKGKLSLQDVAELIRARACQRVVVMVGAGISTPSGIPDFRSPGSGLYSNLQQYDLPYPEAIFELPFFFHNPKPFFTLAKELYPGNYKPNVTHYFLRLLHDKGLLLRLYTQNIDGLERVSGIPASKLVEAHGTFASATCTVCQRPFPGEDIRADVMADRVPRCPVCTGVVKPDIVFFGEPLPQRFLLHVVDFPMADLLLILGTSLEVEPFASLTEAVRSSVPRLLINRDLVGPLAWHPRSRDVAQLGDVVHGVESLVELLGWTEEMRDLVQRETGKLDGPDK
The experiment in a line: HPLC assay of hSIRT3 102-399 deacetylation of MnSOD peptide, Conditions I (steady state): 1000 μM NAD+, 50 μM MnSOD peptide. The settings on record: for Conditions I, Effect: Conditions I (steady state), HPLC/FdL; for Activity test, Conditions I, HPLC: Conditions I: 1000 μM NAD+, 50 μM MnSOD peptide, 50 μM compound, 30 min, triplicate, same values as % control in Table 3. On the procedure:
[…] The peptide product and substrate were resolved using HPLC (reversed-phase C18 HPLC Column). Solvent A was composed of 90% HPLC grade water and 10% acetonitrile with 0.05% (v/v) TFA. Solvent B was composed of acetonitrile with 0.02% (v/v) TFA. […] Then returned to the starting conditions (0% B) within 5 min. Solvent A percentage (100%) was maintained at 100% for 5 additional minutes (36 min total run time).

For test [2], the target named is T1, hSIRT3 102-399. The experiment in a line: HPLC assay of hSIRT3 102-399 deacetylation of MnSOD peptide, Conditions II (non-steady state): 50 μM NAD+, 600 μM peptide. The note with it: for Conditions II, Effect: Conditions II (non-steady state); for Activity test, Conditions II, HPLC: Conditions II: 50 μM NAD+, 600 μM peptide, 10 μM compound, triplicate. On the procedure: FIG. 5. Sirt3 activation by top ranked hit compounds.
The deacetylation activity of SIRT3 was detected in the presence of 10 μM compound of AA8AC40 under non-steady state condition (FIG. 5) using HPLC-based assay. […] The test compound is expected to experience three phases (presteady state, steady-state, and post steady state) during the enzymatic reaction. The pre and post-steady state can be considered as non-steady state, in which the enzyme concentration vs. NAD^+ substrate concentration ratio is high. Depending on the initial ratio of enzyme to limiting substrate in the system (and the ratio of enzyme to test compound concentration), the net effect of test compound over the course of the reaction can be either inhibitory or activating, with activation occurring if this ratio is above a threshold value.
Enzymatic reactions included either 1000 μM NAD^+ and 50 μM MnSOD peptide (Conditions I) or 50 μM NAD^+ and 600 μM peptide substrate (Conditions II) in presence of hit compounds (50 μM (Conditions I) or 10 μM (Conditions II)), in a HDAC buffer (50 mM TRIS-HCl, pH 8.0, containing 137 mM sodium chloride, 2.7 mM potassium chloride, and 1 mM magnesium chloride) dimethyl sulfoxide solution 95/5. […] The reaction was terminated by adding a stopping solution (final concentration of 2% TFA, 5 mM Nicotinamide). The peptide product and substrate were resolved using HPLC (reversed-phase C18 HPLC Column). Solvent A was composed of 90% HPLC grade water and 10% acetonitrile with 0.05% (v/v) TFA. Solvent B was composed of acetonitrile with 0.02% (v/v) TFA. […] Then returned to the starting conditions (0% B) within 5 min. Solvent A percentage (100%) was maintained at 100% for 5 additional minutes (36 min total run time).

For a further test, the target named is T2, hSIRT3 (Homo sapiens, UniProt Q9NTG7).
T2 construct: His-tag; purchased Enzo Life Sciences (Farmingdale, NY)
T2 sequence (Q9NTG7 102-399): T1 sequence (Q9NTG7 102-399)
Put plainly: Fluorescence-based SIRT3 deacetylation assay using FdL2 peptide, steady state (Conditions I). The settings on record: triplicate. On the procedure: FIG. 4. Effect of top ranked hit compounds on Sirt3 deacetylation activity.
The 6 top ranked compounds from DEL screening were tested modulation effect of SIRT3 using fluorescence-based assay (FIG. 4).
The enzymatic reactions were carried out similar to as described above. The reaction was terminated by adding the 1× developer 2 mM NAM solution and measured the fluorescence on TECAN microplate reader. The raw data were fitted to the defined model equations using GraphPad Prism (GraphPad Software, Inc, CA).

For the compound `O=C1NCCN(C(=O)c2cccc(-c3cnn4ccccc34)c2)C1CCO` (stereo not drawn) [FIG. 227], at hSIRT3 102-399 [1], the “Conditions I, Effect” value is reported as “Inhibitor” and the “Activity test, Conditions I, HPLC” value is reported as 98.2. Besides, the “% Control in vitro modulation, Steady-state” value on hSIRT3 102-399 [1] (steady state, 10 μM modulator) is 98.2 % Control. On hSIRT3 102-399 [2], the “Conditions II, Effect” value is “Slight Activator” and the “Activity test, Conditions II, HPLC” value is 103.1. The “% Control in vitro modulation, Non-Steady state” value at hSIRT3 102-399 [2] (non-steady state, 10 μM modulator) came out at 103.1 % Control. Besides, the “Activity test, Conditions I, FdL” value at hSIRT3 was 88.1.

As for `Nc1nc2n(n1)C(c1ccc(OCc3ccccc3)cc1)CC(c1ccc(Cl)cc1)N2` (stereo not drawn) [FIG. 14], at hSIRT3 102-399 [1], the “Conditions I, Effect” value is recorded as “Slight Activator” and the “Activity test, Conditions I, HPLC” value stood at 106.7. In addition, at hSIRT3 102-399 [2], the “Conditions II, Effect” value is given as “Activator” and the “Activity test, Conditions II, HPLC” value is on record as 108.1. The “Activity test, Conditions I, FdL” value on hSIRT3 came out at 101.2.

These data come from patent publication US20260109713A1, “SIRTUIN MODULATING COMPOUNDS, INCLUDING SIRTUIN ACTIVATING COMPOUNDS, AND APPLICATIONS THEREOF” (CODAGEN BIOSCIENCES, INC., priority 2022, published 2026).
